Assay results taken from PubChem BioAssay (NCI).
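Step 1: Grow cells in 96-well plates. Step 2: Expose to compound for 48 hours at 5 concentrations. Step 3: Interpolate endpoints linearly; if unreached, use highest concentration. GI50: concentration for 50% inhibition of growth. TGI: total growth inhibition.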

Experiments:
Assay in all cases: NCI anticancer screen, dose series, 48 h
786-0 renal = system: 786-0 renal
A498 renal = system: A498 renal
A549 NSCLC = system: A549 NSCLC
ACHN renal = system: ACHN renal
BT-549 breast = system: BT-549 breast
CAKI-1 renal = system: CAKI-1 renal
CCRF-CEM leukemia = system: CCRF-CEM leukemia
COLO 205 colon = system: COLO 205 colon
DU-145 prostate = system: DU-145 prostate
EKVX NSCLC = system: EKVX NSCLC
HCC-2998 colon = system: HCC-2998 colon
HCT-116 colon = system: HCT-116 colon
HCT-15 colon = system: HCT-15 colon
HL-60(TB) leukemia = system: HL-60(TB) leukemia
HOP-62 NSCLC = system: HOP-62 NSCLC
HOP-92 NSCLC = system: HOP-92 NSCLC
HS 578T breast = system: HS 578T breast
HT29 colon = system: HT29 colon
IGROV1 ovarian = system: IGROV1 ovarian
K-562 leukemia = system: K-562 leukemia
KM12 colon = system: KM12 colon
LOX IMVI melanoma = system: LOX IMVI melanoma
M14 melanoma = system: M14 melanoma
MALME-3M melanoma = system: MALME-3M melanoma
MCF7 breast = system: MCF7 breast
MDA-MB-231 breast = system: MDA-MB-231 breast
MDA-MB-435 = system: MDA-MB-435
MOLT-4 leukemia = system: MOLT-4 leukemia
NCI-H226 lung = system: NCI-H226 lung
NCI-H23 lung = system: NCI-H23 lung
NCI-H460 lung = system: NCI-H460 lung
NCI-H522 lung = system: NCI-H522 lung
NCI/ADR-RES ovarian = system: NCI/ADR-RES ovarian
OVCAR-3 ovarian = system: OVCAR-3 ovarian
OVCAR-4 ovarian = system: OVCAR-4 ovarian
OVCAR-5 ovarian = system: OVCAR-5 ovarian
OVCAR-8 ovarian = system: OVCAR-8 ovarian
PC-3 prostate = system: PC-3 prostate
RPMI-8226 leukemia = system: RPMI-8226 leukemia
RXF 393 renal = system: RXF 393 renal
SF-268 CNS = system: SF-268 CNS
SF-295 CNS = system: SF-295 CNS
SF-539 CNS = system: SF-539 CNS
SK-MEL-2 melanoma = system: SK-MEL-2 melanoma
SK-MEL-28 melanoma = system: SK-MEL-28 melanoma
SK-MEL-5 melanoma = system: SK-MEL-5 melanoma
SK-OV-3 ovarian = system: SK-OV-3 ovarian
SN12C renal = system: SN12C renal
SNB-19 CNS = system: SNB-19 CNS
SNB-75 CNS = system: SNB-75 CNS
SR leukemia = system: SR leukemia
SW-620 colon = system: SW-620 colon
T-47D breast = system: T-47D breast
TK-10 renal = system: TK-10 renal
U251 CNS = system: U251 CNS
UACC-257 melanoma = system: UACC-257 melanoma
UACC-62 melanoma = system: UACC-62 melanoma
UO-31 renal = system: UO-31 renal

Compound `CC(C)(C)c1ccc(OCCOc2ccc(C(C)(C)C)cc2N)c(N)c1` has a TGI (786-0 renal) of over 100 µM, a TGI (A498 renal) of over 100 µM and a TGI (A549 NSCLC) of over 100 µM. For the same compound, the TGI (ACHN renal) was over 100 µM, the TGI (BT-549 breast) was over 100 µM and the TGI (CAKI-1 renal) was over 100 µM. For the same compound, the TGI (CCRF-CEM leukemia) was over 100 µM, the TGI (COLO 205 colon) was over 100 µM and the TGI (DU-145 prostate) was over 100 µM. The TGI (EKVX NSCLC) was over 100 µM, the TGI (HCC-2998 colon) was over 100 µM and the TGI (HCT-116 colon) was over 100 µM. For the same compound, the TGI (HCT-15 colon) was over 100 µM, the TGI (HL-60(TB) leukemia) was over 100 µM and the TGI (HOP-62 NSCLC) was over 100 µM. For the same compound, the TGI (HOP-92 NSCLC) was over 100 µM, the TGI (HS 578T breast) was over 100 µM and the TGI (HT29 colon) was over 100 µM. It also gave a TGI (IGROV1 ovarian) of over 100 µM, a TGI (K-562 leukemia) of over 100 µM and a TGI (KM12 colon) of over 100 µM. It also gave a TGI (LOX IMVI melanoma) of over 100 µM, a TGI (M14 melanoma) of over 100 µM and a TGI (MALME-3M melanoma) of over 100 µM. For the same compound, the TGI (MCF7 breast) was over 100 µM, the TGI (MDA-MB-231 breast) was over 100 µM and the TGI (MDA-MB-435) was over 100 µM. The TGI (MOLT-4 leukemia) was over 100 µM, the TGI (NCI-H226 lung) was over 100 µM and the TGI (NCI-H23 lung) was over 100 µM. It also gave a TGI (NCI-H460 lung) of over 100 µM, a TGI (NCI-H522 lung) of over 100 µM and a TGI (NCI/ADR-RES ovarian) of over 100 µM. It also gave a TGI (OVCAR-3 ovarian) of over 100 µM, a TGI (OVCAR-4 ovarian) of over 100 µM and a TGI (OVCAR-5 ovarian) of over 100 µM. The TGI (OVCAR-8 ovarian) was over 100 µM, the TGI (PC-3 prostate) was over 100 µM and the TGI (RPMI-8226 leukemia) was over 100 µM. The TGI (RXF 393 renal) was over 100 µM, the TGI (SF-268 CNS) was over 100 µM and the TGI (SF-295 CNS) was over 100 µM. For the same compound, the TGI (SF-539 CNS) was over 100 µM, the TGI (SK-MEL-2 melanoma) was over 100 µM and the TGI (SK-MEL-28 melanoma) was over 100 µM. The TGI (SK-MEL-5 melanoma) was over 100 µM, the TGI (SK-OV-3 ovarian) was over 100 µM and the TGI (SN12C renal) was over 100 µM. The TGI (SNB-19 CNS) was over 100 µM, the TGI (SNB-75 CNS) was over 100 µM and the TGI (SR leukemia) was over 100 µM. The TGI (SW-620 colon) was over 100 µM, the TGI (T-47D breast) was over 100 µM and the TGI (TK-10 renal) was over 100 µM. It also gave a TGI (U251 CNS) of over 100 µM, a TGI (UACC-257 melanoma) of over 100 µM and a TGI (UACC-62 melanoma) of over 100 µM. The TGI (UO-31 renal) was over 100 µM.
Compound `O=C(c1ccc2ccccc2c1)c1c(C(F)(F)F)n([O-])c2ccc(C(F)(F)F)cc2[n+]1=O` has a GI50 (786-0 renal) of 1.29 µM, a TGI (786-0 renal) of 2.68 µM and a GI50 (A498 renal) of 0.757 µM. For the same compound, the TGI (A498 renal) was 1.97 µM, the GI50 (A549 NSCLC) was 1.68 µM and the TGI (A549 NSCLC) was 3.48 µM. For the same compound, the GI50 (ACHN renal) was 0.566 µM, the TGI (ACHN renal) was 1.71 µM and the GI50 (BT-549 breast) was 0.278 µM. It also gave a TGI (BT-549 breast) of 0.751 µM, a GI50 (CAKI-1 renal) of 0.28 µM and a TGI (CAKI-1 renal) of 0.73 µM. The GI50 (CCRF-CEM leukemia) was 0.181 µM, the TGI (CCRF-CEM leukemia) was 0.547 µM and the GI50 (COLO 205 colon) was 0.724 µM. For the same compound, the TGI (COLO 205 colon) was 1.83 µM, the GI50 (DU-145 prostate) was 0.738 µM and the TGI (DU-145 prostate) was 2 µM. It also gave a GI50 (EKVX NSCLC) of 1.54 µM, a TGI (EKVX NSCLC) of 3.2 µM and a GI50 (HCC-2998 colon) of 1.69 µM. For the same compound, the TGI (HCC-2998 colon) was 3.27 µM, the GI50 (HCT-116 colon) was 0.498 µM and the TGI (HCT-116 colon) was 1.16 µM. It also gave a GI50 (HCT-15 colon) of 0.732 µM, a TGI (HCT-15 colon) of 2.07 µM and a GI50 (HL-60(TB) leukemia) of 0.639 µM. It also gave a TGI (HL-60(TB) leukemia) of 2.2 µM, a GI50 (HOP-62 NSCLC) of 1.95 µM and a TGI (HOP-62 NSCLC) of 3.58 µM. For the same compound, the GI50 (HOP-92 NSCLC) was 0.899 µM, the TGI (HOP-92 NSCLC) was 2.28 µM and the GI50 (HS 578T breast) was 1.44 µM. The TGI (HS 578T breast) was 3.97 µM, the GI50 (HT29 colon) was 0.439 µM and the TGI (HT29 colon) was 1.43 µM. For the same compound, the GI50 (IGROV1 ovarian) was 0.27 µM, the TGI (IGROV1 ovarian) was 0.815 µM and the GI50 (K-562 leukemia) was 0.608 µM. For the same compound, the TGI (K-562 leukemia) was 1.14 µM, the GI50 (KM12 colon) was 0.961 µM and the TGI (KM12 colon) was 2.39 µM. The GI50 (LOX IMVI melanoma) was 0.191 µM, the TGI (LOX IMVI melanoma) was 0.363 µM and the GI50 (M14 melanoma) was 1.54 µM. The TGI (M14 melanoma) was 2.95 µM, the GI50 (MALME-3M melanoma) was 1.2 µM and the TGI (MALME-3M melanoma) was 2.71 µM. For the same compound, the GI50 (MCF7 breast) was 0.392 µM, the TGI (MCF7 breast) was 1.56 µM and the GI50 (MDA-MB-231 breast) was 1.48 µM. It also gave a TGI (MDA-MB-231 breast) of 2.95 µM, a GI50 (MDA-MB-435) of 1.75 µM and a TGI (MDA-MB-435) of 3.35 µM. The GI50 (MOLT-4 leukemia) was 0.441 µM, the TGI (MOLT-4 leukemia) was 1.62 µM and the GI50 (NCI-H226 lung) was 1.06 µM. The TGI (NCI-H226 lung) was 3.35 µM, the GI50 (NCI-H23 lung) was 3.4 µM and the TGI (NCI-H23 lung) was 10.2 µM. For the same compound, the GI50 (NCI-H460 lung) was 1.8 µM, the TGI (NCI-H460 lung) was 3.69 µM and the GI50 (NCI-H522 lung) was 0.505 µM. It also gave a TGI (NCI-H522 lung) of 1.09 µM, a GI50 (NCI/ADR-RES ovarian) of 1.7 µM and a TGI (NCI/ADR-RES ovarian) of 4.75 µM. For the same compound, the GI50 (OVCAR-3 ovarian) was 0.884 µM, the TGI (OVCAR-3 ovarian) was 2.26 µM and the GI50 (OVCAR-4 ovarian) was 0.249 µM. The TGI (OVCAR-4 ovarian) was 0.607 µM, the GI50 (OVCAR-5 ovarian) was 0.992 µM and the TGI (OVCAR-5 ovarian) was 4.2 µM. It also gave a GI50 (OVCAR-8 ovarian) of 0.727 µM, a TGI (OVCAR-8 ovarian) of 2.45 µM and a GI50 (PC-3 prostate) of 0.407 µM. For the same compound, the TGI (PC-3 prostate) was 1.42 µM, the GI50 (RPMI-8226 leukemia) was 0.864 µM and the TGI (RPMI-8226 leukemia) was 2.88 µM. It also gave a GI50 (RXF 393 renal) of 0.974 µM, a TGI (RXF 393 renal) of 2.54 µM and a GI50 (SF-268 CNS) of 0.783 µM. The TGI (SF-268 CNS) was 2.37 µM, the GI50 (SF-295 CNS) was 1.29 µM and the TGI (SF-295 CNS) was 2.74 µM. For the same compound, the GI50 (SF-539 CNS) was 1.56 µM, the TGI (SF-539 CNS) was 2.97 µM and the GI50 (SK-MEL-2 melanoma) was 1.96 µM. It also gave a TGI (SK-MEL-2 melanoma) of 3.77 µM, a GI50 (SK-MEL-28 melanoma) of 1.48 µM and a TGI (SK-MEL-28 melanoma) of 2.86 µM. For the same compound, the GI50 (SK-MEL-5 melanoma) was 0.927 µM, the TGI (SK-MEL-5 melanoma) was 2.37 µM and the GI50 (SK-OV-3 ovarian) was 1.79 µM. For the same compound, the TGI (SK-OV-3 ovarian) was 3.2 µM, the GI50 (SN12C renal) was 1.39 µM and the TGI (SN12C renal) was 3.3 µM. It also gave a GI50 (SNB-19 CNS) of 1.76 µM, a TGI (SNB-19 CNS) of 3.2 µM and a GI50 (SNB-75 CNS) of 0.64 µM. It also gave a TGI (SNB-75 CNS) of 1.48 µM, a GI50 (SR leukemia) of 0.174 µM and a TGI (SR leukemia) of 0.478 µM. It also gave a GI50 (SW-620 colon) of 0.514 µM, a TGI (SW-620 colon) of 1.11 µM and a GI50 (T-47D breast) of 0.755 µM. For the same compound, the TGI (T-47D breast) was 2.31 µM, the GI50 (TK-10 renal) was 1.67 µM and the TGI (TK-10 renal) was 3.07 µM. For the same compound, the GI50 (U251 CNS) was 0.302 µM, the TGI (U251 CNS) was 0.742 µM and the GI50 (UACC-257 melanoma) was 1.52 µM. For the same compound, the TGI (UACC-257 melanoma) was 3.12 µM, the GI50 (UACC-62 melanoma) was 1.72 µM and the TGI (UACC-62 melanoma) was 3.21 µM. For the same compound, the GI50 (UO-31 renal) was 0.434 µM and the TGI (UO-31 renal) was 0.874 µM.
